Test results reported in patent US20160257651A1, “NOVEL COMPOUND WITH ANTIBACTERIAL ACTIVITY” (priority 2013, published 2016).
In brackets after ≈: the same amount, converted by molar mass.

What follows are molecules tested on S. pneumoniae KBSP11 (assay: MIC against pneumococcus, CAMHB with 5 mass % LHB). Conditions: Streptococcus pneumoniae, PRSP.
Type: cell-based, Streptococcus pneumoniae
Method: (§1) The S. pneumoniae strains used for this test belong to any one of the categories of penicillin-susceptible pneumococcus (penicillin-susceptible Streptococcus pneumoniae, PSSP), penicillin-intermediate pneumococcus (penicillin-intermediate Streptococcus pneumoniae, PISP), and penicillin-resistant pneumococcus (penicillin-resistant Streptococcus pneumoniae, PRSP).
(§2) The lysed horse blood was prepared by adding sterilized water to horse sterile defibered blood (produced by Nippon Bio-Supp. Center) at a ratio of 1:1, subjecting the mixture to freezing and thawing 5 times, then centrifuging the mixture twice at 10,000 rpm for 20 minutes, and filtering the supernatant through a filter.
(§3) The S. pneumoniae strains mentioned in Table 11 were each cultured overnight at 37° C. on a blood agar medium as stationary culture. The blood agar medium was prepared by adding 5 mass % ovine sterile defibered blood (produced by Nippon Bio-Supp. Center) to a heart infusion agar medium (produced by EIKEN CHEMICAL). Each S. pneumoniae strain cultured overnight at 37° C. as stationary culture was further subcultured overnight at 37° C. on fresh blood agar medium as stationary culture. After completion of the culture, cells of each pneumococcus strain were collected with a swab, and suspended in physiological saline, and the suspension was adjusted with physiological saline to show absorbance of 0.08 to 0.13 at 625 nm as measured with an absorbance meter (produced by Amersham), and further diluted 200 times with CAMHB containing 5 mass % LHB.
(§4) In Table 11, the amino acid substitution mutations in QRDR of the strains are underlined.

Structure (SMILES)	MIC [µg/mL]
NC1CCN(c2nc3c(cc2F)c(=O)c(C(=O)O)cn3-c2ccc(F)cc2F)C1 (centres unmarked) [TSX, tosufloxacin]	0.125 (≈ 0.309 µM)

Same assay, conditions: Streptococcus pneumoniae; S. pneumoniae KBSP11, PRSP, quinolone-susceptible; read-out: MIC

Structure (SMILES)	MIC [µg/mL]
O=C(O)c1cn(C2CC2)c2cc(N3CCNCC3)c(F)cc2c1=O [CIP, ciprofloxacin]	0.5 (≈ 1.51 µM)

Each molecule was assayed on S. pneumoniae BCLSP37 (assay: MIC against pneumococcus, CAMHB with 5 mass % LHB). Conditions: Streptococcus pneumoniae, BCLSP37, S. pneumoniae BCLSP37, PSSP, quinolone-resistant; ParC 79Phe, GyrA 85Lys; read-out: MIC.
Type: cell-based, Streptococcus pneumoniae
Method: as §1, §2, §3, §4

Structure (SMILES)	MIC [µg/mL]
O=C(O)c1cn(C2CC2)c2cc(N3CCNCC3)c(F)cc2c1=O [CIP, ciprofloxacin]	> 32
NC1CCN(c2nc3c(cc2F)c(=O)c(C(=O)O)cn3-c2ccc(F)cc2F)C1 (centres unmarked) [TSX, tosufloxacin]	16 (≈ 39.6 µM)

What follows are molecules tested on Staphylococcus aureus KSA36 (MRSA) (assay: MIC, S. aureus categories (Test Example 3)). Conditions: not given.
Type: cell-based
Method: (§5) The antibacterial activities of the compound J-131CP against Staphylococcus aureus strains belonging to the five categories of Staphylococcus aureus, i.e., MSSA, MRSA, community-acquired-infection type MRSA (CA-MRSA), VISA, and VRSA, were investigated.
(§6) The compound J-131CP and quinolones were prepared in the same manner as that of Test Example 1-1.
(§7) Cell suspensions were prepared in the same manner as that of Test Example 1-1 described in the section of measurement of MIC in Test Example 1-1, except that the strains mentioned in Table 6 were used as Staphylococcus aureus, and MICs of the compound J-131CP and quinolones as the control were determined for the strains in the same manner as that of Test Example 1-1. In Table 6, the amino acid substitution mutations in QRDR of the strains are underlined.

Structure (SMILES)	MIC [µg/mL]
O=C(O)c1cn(C2CC2)c2cc(N3CCNCC3)c(F)cc2c1=O [CIP, ciprofloxacin]	128 (≈ 386 µM)
NC1CCN(c2nc3c(cc2F)c(=O)c(C(=O)O)cn3-c2ccc(F)cc2F)C1 (centres unmarked) [TSX, tosufloxacin]	> 128

These molecules were tested on Staphylococcus aureus MW2 (CA-MRSA) (assay: MIC, S. aureus categories (Test Example 3)). Conditions: Staphylococcus aureus; strain MW2, CA-MRSA; read-out: MIC.
Type: cell-based
Method: as §5, §6, §7

Structure (SMILES)	MIC [µg/mL]
O=C(O)c1cn(C2CC2)c2cc(N3CCNCC3)c(F)cc2c1=O [CIP, ciprofloxacin]	0.25 (≈ 0.754 µM)
NC1CCN(c2nc3c(cc2F)c(=O)c(C(=O)O)cn3-c2ccc(F)cc2F)C1 (centres unmarked) [TSX, tosufloxacin]	≤ 0.06

Each molecule was assayed on Staphylococcus aureus ATCC29213 (MSSA) (assay: MIC, S. aureus categories (Test Example 3)). Conditions: strain ATCC29213, MSSA, read-out: MIC.
Type: cell-based
Method: as §5, §6, §7

Structure (SMILES)	MIC [µg/mL]
O=C(O)c1cn(C2CC2)c2cc(N3CCNCC3)c(F)cc2c1=O [CIP, ciprofloxacin]	0.25 (≈ 0.754 µM)
NC1CCN(c2nc3c(cc2F)c(=O)c(C(=O)O)cn3-c2ccc(F)cc2F)C1 (centres unmarked) [TSX, tosufloxacin]	≤ 0.06

The molecules below were run on Staphylococcus aureus BR2 (VISA) (assay: MIC, S. aureus categories (Test Example 3)). Conditions: not given.
Type: cell-based
Method: as §5, §6, §7

Structure (SMILES)	MIC [µg/mL]
O=C(O)c1cn(C2CC2)c2cc(N3CCNCC3)c(F)cc2c1=O [CIP, ciprofloxacin]	4 (≈ 12.1 µM)
NC1CCN(c2nc3c(cc2F)c(=O)c(C(=O)O)cn3-c2ccc(F)cc2F)C1 (centres unmarked) [TSX, tosufloxacin]	32 (≈ 79.1 µM)

Each molecule was assayed on Staphylococcus aureus MI (VISA) (assay: MIC, S. aureus categories (Test Example 3)). Conditions: not given.
Type: cell-based
Method: as §5, §6, §7

Structure (SMILES)	MIC [µg/mL]
O=C(O)c1cn(C2CC2)c2cc(N3CCNCC3)c(F)cc2c1=O [CIP, ciprofloxacin]	16 (≈ 48.3 µM)
NC1CCN(c2nc3c(cc2F)c(=O)c(C(=O)O)cn3-c2ccc(F)cc2F)C1 (centres unmarked) [TSX, tosufloxacin]	16 (≈ 39.6 µM)

These molecules were tested on Staphylococcus aureus VRS1 (VRSA) (assay: MIC, S. aureus categories (Test Example 3)). Conditions: not given.
Type: cell-based
Method: as §5, §6, §7

Structure (SMILES)	MIC [µg/mL]
O=C(O)c1cn(C2CC2)c2cc(N3CCNCC3)c(F)cc2c1=O [CIP, ciprofloxacin]	128 (≈ 386 µM)
NC1CCN(c2nc3c(cc2F)c(=O)c(C(=O)O)cn3-c2ccc(F)cc2F)C1 (centres unmarked) [TSX, tosufloxacin]	4 (≈ 9.89 µM)

These molecules were tested on Staphylococcus aureus VRS3a (VRSA) (assay: MIC, S. aureus categories (Test Example 3)). Conditions: not given.
Type: cell-based
Method: as §5, §6, §7

Structure (SMILES)	MIC [µg/mL]
O=C(O)c1cn(C2CC2)c2cc(N3CCNCC3)c(F)cc2c1=O [CIP, ciprofloxacin]	64 (≈ 193 µM)
NC1CCN(c2nc3c(cc2F)c(=O)c(C(=O)O)cn3-c2ccc(F)cc2F)C1 (centres unmarked) [TSX, tosufloxacin]	> 128

What follows are molecules tested on Staphylococcus aureus NCTC8325 (MSSA) (assay: MIC, S. aureus categories (Test Example 3)). Conditions: Staphylococcus aureus; strain NCTC8325, MSSA; read-out: MIC.
Type: cell-based
Method: as §5, §6, §7

Structure (SMILES)	MIC [µg/mL]
O=C(O)c1cn(C2CC2)c2cc(N3CCNCC3)c(F)cc2c1=O [CIP, ciprofloxacin]	0.25 (≈ 0.754 µM)
NC1CCN(c2nc3c(cc2F)c(=O)c(C(=O)O)cn3-c2ccc(F)cc2F)C1 (centres unmarked) [TSX, tosufloxacin]	≤ 0.06

What follows are molecules tested on Staphylococcus aureus USA300FPR (CA-MRSA) (assay: MIC, S. aureus categories (Test Example 3)). Conditions: not given.
Type: cell-based
Method: as §5, §6, §7

Structure (SMILES)	MIC [µg/mL]
O=C(O)c1cn(C2CC2)c2cc(N3CCNCC3)c(F)cc2c1=O [CIP, ciprofloxacin]	16 (≈ 48.3 µM)
NC1CCN(c2nc3c(cc2F)c(=O)c(C(=O)O)cn3-c2ccc(F)cc2F)C1 (centres unmarked) [TSX, tosufloxacin]	16 (≈ 39.6 µM)

The molecules below were run on S. aureus MR5867 (assay: MIC against stepwise QRDR mutants). Conditions: Staphylococcus aureus.
Type: cell-based
Excerpt: (§8) In order to further verify that the action site of the compound J-131CP is gyrA, there were examined antibacterial activities against the MRSA, S. aureus MR5867, and stepwise-mutated strains (one-step mutant strain to three-step mutant strain) of S. aureus MR5867 in which mutation was introduced into QRDR, as well as the MSSA, S. aureus MS5952, and stepwise-mutated strains (one-step mutant strain to three-step mutant strain) of S. aureus MS5952 in which mutation was introduced into QRDR (those strains mentioned above are described in Antimicrob. Agents Chemother., 42(8), pp. 1917-1922, 1998) by the following methods. The strains used for this test example are available from the inventors of the present invention.
as §6
(§9) Then, the cell suspension was diluted 500 times with CAMHB mentioned above.
(§10) CAMHB containing each of the compound J-131CP and quinolones at each concentration was added to each well of a 96-well plate in a volume of 50 μL/well, the aforementioned cell suspension diluted 500 times was added to the well in a volume of 50 μL/well, and stationary culture was carried out overnight at 37° C. in the same manner as that of Test Example 1-1.

Structure (SMILES)	MIC [µg/mL]
O=C(O)c1cn(C2CC2)c2cc(N3CCNCC3)c(F)cc2c1=O [CIP, ciprofloxacin]	0.25 (≈ 0.754 µM)
NC1CCN(c2nc3c(cc2F)c(=O)c(C(=O)O)cn3-c2ccc(F)cc2F)C1 (centres unmarked) [TSX, tosufloxacin]	< 0.06

What follows are molecules tested on S. aureus MS5952 two-step mutant (assay: MIC against stepwise QRDR mutants). Conditions: Staphylococcus aureus.
Type: cell-based
Excerpt: as §8, §6, §9, §10

Structure (SMILES)	MIC [µg/mL]
O=C(O)c1cn(C2CC2)c2cc(N3CCNCC3)c(F)cc2c1=O [CIP, ciprofloxacin]	8 (≈ 24.1 µM)
NC1CCN(c2nc3c(cc2F)c(=O)c(C(=O)O)cn3-c2ccc(F)cc2F)C1 (centres unmarked) [TSX, tosufloxacin]	8 (≈ 19.8 µM)

These molecules were tested on S. aureus MS5952 (assay: MIC against stepwise QRDR mutants). Conditions: Staphylococcus aureus.
Type: cell-based
Excerpt: as §8, §6, §9, §10

Structure (SMILES)	MIC [µg/mL]
O=C(O)c1cn(C2CC2)c2cc(N3CCNCC3)c(F)cc2c1=O [CIP, ciprofloxacin]	0.25 (≈ 0.754 µM)
NC1CCN(c2nc3c(cc2F)c(=O)c(C(=O)O)cn3-c2ccc(F)cc2F)C1 (centres unmarked) [TSX, tosufloxacin]	0.25 (≈ 0.618 µM)

Each molecule was assayed on S. aureus MR5867 three-step mutant (assay: MIC against stepwise QRDR mutants). Conditions: Staphylococcus aureus.
Type: cell-based
Excerpt: as §8, §6, §9, §10

Structure (SMILES)	MIC [µg/mL]
O=C(O)c1cn(C2CC2)c2cc(N3CCNCC3)c(F)cc2c1=O [CIP, ciprofloxacin]	128 (≈ 386 µM)
NC1CCN(c2nc3c(cc2F)c(=O)c(C(=O)O)cn3-c2ccc(F)cc2F)C1 (centres unmarked) [TSX, tosufloxacin]	> 128

These molecules were tested on S. aureus MR5867 two-step mutant (assay: MIC against stepwise QRDR mutants). Conditions: Staphylococcus aureus.
Type: cell-based
Excerpt: as §8, §6, §9, §10

Structure (SMILES)	MIC [µg/mL]
O=C(O)c1cn(C2CC2)c2cc(N3CCNCC3)c(F)cc2c1=O [CIP, ciprofloxacin]	32 (≈ 96.6 µM)
NC1CCN(c2nc3c(cc2F)c(=O)c(C(=O)O)cn3-c2ccc(F)cc2F)C1 (centres unmarked) [TSX, tosufloxacin]	8 (≈ 19.8 µM)

Each molecule was assayed on S. aureus MS5952 three-step mutant (assay: MIC against stepwise QRDR mutants). Conditions: Staphylococcus aureus.
Type: cell-based
Excerpt: as §8, §6, §9, §10

Structure (SMILES)	MIC [µg/mL]
O=C(O)c1cn(C2CC2)c2cc(N3CCNCC3)c(F)cc2c1=O [CIP, ciprofloxacin]	64 (≈ 193 µM)
NC1CCN(c2nc3c(cc2F)c(=O)c(C(=O)O)cn3-c2ccc(F)cc2F)C1 (centres unmarked) [TSX, tosufloxacin]	> 128

What follows are molecules tested on E. faecium RPR2 (assay: MIC against Enterococcus bacteria). Conditions: Enterococcus faecium, RPR2.
Type: cell-based, Enterococcus faecium
Method: (§11) Antibacterial activities of the compound J-131CP against Enterococcus bacteria (Enterococcus faecium and Enterococcus faecalis) were examined by the following methods.
as §6
(§12) Cell suspensions were prepared in the same manner as that of Test Example 1-1 described in the section of measurement of MIC in Test Example 1-1, except that the Enterococcus bacterium strains mentioned in Table 8 were used instead of Staphylococcus aureus, and MICs of the compound J-131CP and quinolones as control were determined for the strains in the same manner as that of Test Example 1-1 described in the section of measurement of MIC in Test Example 1-1. In Table 8, the amino acid substitution mutations in QRDR of the strains are underlined.

Structure (SMILES)	MIC [µg/mL]
O=C(O)c1cn(C2CC2)c2cc(N3CCNCC3)c(F)cc2c1=O [CIP, ciprofloxacin]	> 128
NC1CCN(c2nc3c(cc2F)c(=O)c(C(=O)O)cn3-c2ccc(F)cc2F)C1 (centres unmarked) [TSX, tosufloxacin]	> 128

What follows are molecules tested on E. faecium NCTC12202 (assay: MIC against Enterococcus bacteria). Conditions: Enterococcus faecium, NCTC 12202 / VRE; E. faecium NCTC12202, VRE, quinolone-susceptible; read-out: MIC.
Type: cell-based, Enterococcus faecium
Method: as §11, §6, §12

Structure (SMILES)	MIC [µg/mL]
O=C(O)c1cn(C2CC2)c2cc(N3CCNCC3)c(F)cc2c1=O [CIP, ciprofloxacin]	0.5 (≈ 1.51 µM)
NC1CCN(c2nc3c(cc2F)c(=O)c(C(=O)O)cn3-c2ccc(F)cc2F)C1 (centres unmarked) [TSX, tosufloxacin]	0.25 (≈ 0.618 µM)
